In one data set the target is Carbonic anhydrase 9 (Homo sapiens, UniProt Q16790). Kind of data set: Inhibition of recombinant human carbonic anhydrase 9 using 4-nitrophenylacetate as substrate.
Data set [1] is described as follows: Cytotoxicity against HCEC assessed as […] cell viability at 1% concentration by MTT assay relative to control. The format is functional, Homo sapiens. In general terms: Tetrazolium dyes change colour on reduction, which living cells bring about.
Data set [2] in a line: Cytotoxicity against HCEC assessed as reduction in cell viability at 2% concentration by MTT assay relative to control. In kind it is functional, Homo sapiens.
Data set [3] can be described thus: Solubility of the compound. The format is physicochemical.

This passage reports IC50, Activity and solubility results from ChEMBL document CHEMBL5030527, “Novel carbohydrate-based sulfonamide derivatives as selective carbonic anhydrase II inhibitors: Synthesis, biological and molecular docking analysis” (Bioorg Med Chem Lett, 2021).

Structures are written as SMILES.

For the compound `CCCO[C@@H]1O[C@H](CO)[C@@H](O)[C@H](O)[C@H]1NC(=O)c1ccc(S(N)(=O)=O)cc1`, the IC50 (usually the midpoint of a concentration-inhibition curve) at Carbonic anhydrase 9 was found to be 0.241 µM. The Activity is listed as 80% in data set [1] and 77% in data set [2]. In addition, the solubility in data set [3] turned out to be 2%.

For `CC(=O)N[C@@H]1O[C@H](CO)[C@@H](O)[C@H](O)[C@H]1NC(=O)c1ccc(S(N)(=O)=O)cc1`, on Carbonic anhydrase 9, the IC50 is 0.227 µM. In addition, the Activity turned out to be 80% in data set [1] and 77% in data set [2]. In data set [3], the solubility came to 2.5%.

Take `CCN[C@H]1CN(CCCOC)S(=O)(=O)c2sc(S(N)(=O)=O)cc21` [BRINZOLAMIDE]: the solubility in data set [3] is on record as 0.05%.

With `CC(C)O[C@@H]1O[C@H](CO)[C@@H](O)[C@H](O)[C@H]1NC(=O)c1ccc(S(N)(=O)=O)cc1`, the IC50 at Carbonic anhydrase 9 was determined as 0.142 µM. In addition, the values for the Activity in data set [1] and in data set [2] were 80% and 77%, respectively. Moreover, the solubility in data set [3] is listed as 2%.

As for `NS(=O)(=O)c1ccc(C(=O)O)cc1` [CARZENIDE], the IC50 on Carbonic anhydrase 9 was found to be 24 µM.

In the case of `CO[C@@H]1O[C@H](CO)[C@@H](O)[C@H](O)[C@H]1NC(=O)c1ccc(S(N)(=O)=O)cc1`, at Carbonic anhydrase 9, the IC50 came to 0.09 µM. The results for the Activity in data set [1] and in data set [2] were 80% and 77%, respectively. Besides, the solubility in data set [3] stood at 2.5%.

On to `CCC(=O)N[C@@H]1O[C@H](CO)[C@@H](O)[C@H](O)[C@H]1NC(=O)c1ccc(S(N)(=O)=O)cc1`, for which the IC50 on Carbonic anhydrase 9 is 0.276 µM. For the same compound, the Activity in data set [1] is given as 80%; in data set [2], 77%. In data set [3], the solubility is 2.5%.

In data set [3], `CC(=O)Nc1nnc(S(N)(=O)=O)s1` [ACETAZOLAMIDE] displayed a solubility of 0.21%.

In data set [3], `CCN[C@H]1C[C@H](C)S(=O)(=O)c2sc(S(N)(=O)=O)cc21` [DORZOLAMIDE] yielded a solubility of 0.67%.

Take `CCO[C@@H]1O[C@H](CO)[C@@H](O)[C@H](O)[C@H]1NC(=O)c1ccc(S(N)(=O)=O)cc1`: the IC50 at Carbonic anhydrase 9 is 0.152 µM. For the same compound, the Activity in data set [1] is recorded as 80%; in data set [2], 77%. The same compound showed a solubility in data set [3] of 2.3%.
